Laboratory results published in ChEMBL document CHEMBL1201862, “PubChem BioAssay data set” (2004).
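Each compound was tested at five concentrations against cells in 96-well plates for 48 hours. GI50 is the concentration that inhibits growth by half.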 Active and inactive are the calls of the source. Rule as the data show it: active = GI50 up to about 1.1 µM and inactive = higher.

Experiments:
Experiment in all cases: DTP human tumour cell line panel, 48 h
[1] = system: EKVX
[2] = system: 786-0
[3] = system: MDA-N
[4] = system: NCI-H522
[5] = system: U-251
[6] = system: OVCAR-8
[7] = system: SK-MEL-28
[8] = system: Hs-578T
[9] = system: DU-145
[10] = system: MOLT-4
[11] = system: KM12
[12] = system: LOX IMVI
[13] = system: SF-295
[14] = system: MDA-MB-435
[15] = system: IGROV-1
[16] = system: A498
[17] = system: RXF 393
[18] = system: T47D
[19] = system: UACC-257
[20] = system: HOP-62

Measured: GI50

CCOC(=S)SC/C(=N\OC(C)(C)OC)c1ccccc1
inactive: [1] 48.9 µM | [2] 55.1 µM | [3] 36.1 µM | [4] 24.1 µM | [5] 41.9 µM | [6] 88.7 µM | [7] 47.3 µM | [8] 46.5 µM | [9] > 100 µM | [10] 20 µM | [11] 31.9 µM | [12] 16.3 µM | [13] 32.3 µM | [14] 25 µM | [15] 46.5 µM | [16] 72.6 µM | [17] 25.6 µM | [18] 20.7 µM | [19] 35.3 µM | [20] 42.1 µM

COc1ccc(C2CC(c3c(C)nn(-c4ccccc4)c3-c3ccc(C)cc3O)=NN2c2ccccc2)cc1 (centres undefined)
inactive: [1] > 33.5 µM | [2] > 100 µM | [3] 21.4 µM | [4] 24.8 µM | [5] 33.3 µM | [6] 20.4 µM | [7] > 89.3 µM | [8] 10.4 µM | [9] > 79.3 µM | [10] 4.65 µM | [11] 3.33 µM | [12] > 30.1 µM | [13] 6.93 µM | [14] 15 µM | [15] 49.3 µM | [16] > 100 µM | [17] 8.13 µM | [18] 9.57 µM | [19] 67.3 µM | [20] > 100 µM

Cn1c2ccccc2n2c3ncccc3c(=S)c(C#N)c12
inactive: [1] > 100 µM | [2] 75.7 µM | [3] > 100 µM | [4] > 100 µM | [5] > 100 µM | [6] > 100 µM | [7] > 100 µM | [8] > 100 µM | [9] > 100 µM | [10] > 100 µM | [11] > 100 µM | [12] > 100 µM | [13] > 100 µM | [14] > 100 µM | [15] > 100 µM | [16] > 100 µM | [17] > 100 µM | [18] > 100 µM | [20] > 100 µM

CC(=O)OCC1OC(N2C(c3ccccc3)=CC(c3ccco3)C(C#N)=C2S)C(OC(C)=O)C(OC(C)=O)C1OC(C)=O (centres undefined)
inactive: [1] > 29 µM | [2] 2.03 µM | [3] 11.3 µM | [4] 16.6 µM | [5] 2.54 µM | [6] 2.83 µM | [7] 8.79 µM | [8] 2.17 µM | [9] 19.7 µM | [10] > 22.2 µM | [11] 15.3 µM | [12] 5.74 µM | [13] 14.4 µM | [14] 8.11 µM | [15] 27.4 µM | [16] 15.2 µM | [17] 4.06 µM | [18] 30.4 µM | [19] > 32.1 µM | [20] 6.27 µM

CCCCCCc1cc2cc(C(=O)Nc3ccccc3)c(=N)oc2cc1O
inactive: [1] 3.29 µM | [2] 3.21 µM | [3] 3.88 µM | [4] 1.94 µM | [5] 2.99 µM | [6] 3.93 µM | [7] 6.87 µM | [8] 3.21 µM | [9] 4.82 µM | [10] 2.16 µM | [11] 2.51 µM | [12] 3.23 µM | [13] 3.05 µM | [14] 3.53 µM | [15] 2.92 µM | [16] 26.2 µM | [17] 5.56 µM | [18] 2.33 µM | [19] 4.63 µM | [20] 2.76 µM
